Measurements published in article PMC10930102 (Journal of Enzyme Inhibition and Medicinal Chemistry, 2024).
Entries after “also recorded” stand apart in the source; their conditions may differ.

Experiments:
c-Src = target: T1, c-Src (Homo sapiens, UniProt P12931); test: RTK in vitro enzymatic assay; format: biochemical; conditions: 20 μM ATP
T1 construct: purchased Reaction Biology Corporation

ALK L1196M = target: T2, ALK L1196M (Homo sapiens, UniProt Q9UM73, L1196M); test: ALK mutant in vitro enzymatic assay; format: biochemical; conditions: 20 μM ATP
T2 construct: purchased Reaction Biology Corporation

HDAC11 = target: T3, HDAC11 (Homo sapiens, UniProt Q96DB2); test: HDAC inhibition assay (fluorogenic peptide, Reaction Biology); format: biochemical; conditions: tested once, ten-dose starting at 30 µM
T3 construct: purchased Reaction Biology Corporation; host or cells: baculovirus expression system in SF9 cells
T3 sequence (Q96DB2 1-347): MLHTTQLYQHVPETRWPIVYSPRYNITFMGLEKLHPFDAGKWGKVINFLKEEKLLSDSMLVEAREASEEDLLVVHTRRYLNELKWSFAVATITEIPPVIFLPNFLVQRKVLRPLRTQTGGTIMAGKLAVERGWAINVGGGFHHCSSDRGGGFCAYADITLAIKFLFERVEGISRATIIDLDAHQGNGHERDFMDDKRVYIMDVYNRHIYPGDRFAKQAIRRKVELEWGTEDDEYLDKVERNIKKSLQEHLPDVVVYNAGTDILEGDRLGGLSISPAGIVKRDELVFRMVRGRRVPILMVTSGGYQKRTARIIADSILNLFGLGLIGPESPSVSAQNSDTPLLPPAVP

CYP2C9 = target: T4, CYP2C9 (Homo sapiens, UniProt P11712); test: CYP450 inhibition assay; format: in vitro ADME; conditions: human recombinant enzyme
T4 construct: purchased Reaction Biology Corporation; host or cells: CYP cDNA baculovirus expression systems

ALK F1174L = target: T5, ALK F1174L (Homo sapiens, UniProt Q9UM73, F1174L); test: ALK mutant in vitro enzymatic assay; format: biochemical; conditions: 20 μM ATP
T5 construct: purchased Reaction Biology Corporation

[1] = system: protein expression level of HDAC1, HDAC6, or HDAC8; test: Western blot of HDAC protein expression; format: cell-based, human; conditions: western blot after treatment (supplemental Figure S3)
Description: (§1) Treated cells were washed three times with ice-cold phosphate-buffered saline and lysed in lysis buffer containing 100 mM Tris-HCl, 12 mM sodium deoxycholate, 12 mM sodium lauroylsarcosinate, and protease inhibitor cocktail (BioTools). Cells were heated in lysis buffer at 95 °C for 5 min and then the cell membrane was broken up by sonication (Bioruptor). Cellular debris and unbroken cells were removed by centrifugation (12,500 × g for 30 min, 4 °C). Protein concentration was determined using the bicinchoninic acid assay (Thermo). Cell extracts (20 μg) were resolved by 12% sodium dodecyl sulfate-polyacrylamide gel electrophoresis (SDS-PAGE), transferred to PVDF membranes, and probed separately with antibodies for Ac-histone H3, Ac-α-tubulin, histone H3, α-tubulin, HDAC1, HDAC6, HDAC8 and GAPDH. The antibodies of GAPDH, HDAC1, and HDAC8 were purchased from ABclonal and all other antibodies were from Cell Signalling Technology. Antibody signals were detected using an enhanced chemiluminescence system.
Figure S3. Western blots of HDAC1, HDAC6, and HDAC8 after drug treatment and vehicle control
activity was assessed by MTS assay, and the concentration of inhibitors was determined to be half of their
was tested five times, and the results were normalized to 1. (blank) […]

HDAC8 = target: T6, HDAC8 (Homo sapiens, UniProt Q9BY41); test: HDAC inhibition assay (fluorogenic diacylpeptide, Reaction Biology); format: biochemical; conditions: tested once, ten-dose starting at 30 µM
T6 construct: purchased Reaction Biology Corporation; host or cells: baculovirus expression system in SF9 cells
T6 sequence (Q9BY41 1-377): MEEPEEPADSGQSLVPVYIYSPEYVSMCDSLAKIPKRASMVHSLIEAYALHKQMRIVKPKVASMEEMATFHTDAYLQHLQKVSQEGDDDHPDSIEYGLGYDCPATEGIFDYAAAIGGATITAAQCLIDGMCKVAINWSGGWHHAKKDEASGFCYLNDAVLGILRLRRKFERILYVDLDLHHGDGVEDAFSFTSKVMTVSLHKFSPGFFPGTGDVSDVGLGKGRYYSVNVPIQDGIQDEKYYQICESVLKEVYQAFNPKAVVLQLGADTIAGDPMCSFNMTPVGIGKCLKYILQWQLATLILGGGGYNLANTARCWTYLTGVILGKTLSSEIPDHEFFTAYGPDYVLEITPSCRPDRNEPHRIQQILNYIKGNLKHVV

JAK2 = target: T7, JAK2 (Homo sapiens, UniProt O60674); test: RTK in vitro enzymatic assay; format: biochemical; conditions: 20 μM ATP
T7 construct: purchased Reaction Biology Corporation

[2] = system: acetylated histone H3, a substrate of class I HDAC; test: Western blot of acetylated histone H3 in H2228 cells; format: cell-based, human; conditions: 6 h, 3b 2 µM
Source text: Figure 4. Effect of test compounds on H2228 cells. […] (A) Western blots of phosphorylated tyrosine residue 1640 on ALK as well as acetylated (Ac) α-tubulin and histone H3 with their corresponding total proteins for normalisation. GAPDH was used as a loading control. (B) Quantification of western blotting results using Image J. Error bars indicate ± S.D.E. *p-Value ≤ 0.05, **p-value ≤ 0.01, ***p-value ≤ 0.001.
as §1, with “The antibodies of GAPDH, HDAC1, and HDAC8 were purchased from ABclonal and all other antibodies were from Cell Signalling Technology.” left out

c-Met = target: T8, c-Met (Homo sapiens, UniProt P08581); test: RTK in vitro enzymatic assay; format: biochemical; conditions: 20 μM ATP
T8 construct: purchased Reaction Biology Corporation

[3] = system: human A549 tumour xenografts; test: Human A549 tumour xenograft model; format: in vivo
Description: […]. Xenografts were implanted by subcutaneous injection of A549 cells and then treatment with various dosages of 3b (0, 5, 10, 20 mg/kg by intraperitoneal injection once daily for 21 days) was initiated when tumour size was 10–20 mm^3. […] Moreover, tumour suppression continued for an additional 10 days after treatment was suspended.
The procedure for establishing tumour xenografts and the dosing of 3b were carried out in accordance with the National Taiwan University College of Medicine Laboratory Animal Centre ([…]) care and use committee. Female nude mice (BALB/cAnN.Cg-Foxn1nu/CrlNarl, 6–8 weeks old) were purchased from the National Laboratory Animal Centre (Taiwan). Mice were implanted subcutaneously in the right flank with 1 × 10^7 A549 cells (human NSCLC, in 1:1 PBS/Geltrex, 200 μL). Treatments were initiated when tumours were 10–20 mm^3 and continued for 21 consecutive days. Mice were randomly assigned to cohorts (n = 5 per group). Compound 3b (10 mg/kg) or vehicle (PBS + 5% DMSO + 10% Pharmasolve) was administered once daily (qd) via intraperitoneal (i.p.) injection. Tumour volume and body weight were assessed daily for 31 days from initiation of treatment. Calliper measurements of tumours were converted to mean tumour volume using the formula: 0.5 × (length × width[2]).

T7 sequence (O60674 whole entry): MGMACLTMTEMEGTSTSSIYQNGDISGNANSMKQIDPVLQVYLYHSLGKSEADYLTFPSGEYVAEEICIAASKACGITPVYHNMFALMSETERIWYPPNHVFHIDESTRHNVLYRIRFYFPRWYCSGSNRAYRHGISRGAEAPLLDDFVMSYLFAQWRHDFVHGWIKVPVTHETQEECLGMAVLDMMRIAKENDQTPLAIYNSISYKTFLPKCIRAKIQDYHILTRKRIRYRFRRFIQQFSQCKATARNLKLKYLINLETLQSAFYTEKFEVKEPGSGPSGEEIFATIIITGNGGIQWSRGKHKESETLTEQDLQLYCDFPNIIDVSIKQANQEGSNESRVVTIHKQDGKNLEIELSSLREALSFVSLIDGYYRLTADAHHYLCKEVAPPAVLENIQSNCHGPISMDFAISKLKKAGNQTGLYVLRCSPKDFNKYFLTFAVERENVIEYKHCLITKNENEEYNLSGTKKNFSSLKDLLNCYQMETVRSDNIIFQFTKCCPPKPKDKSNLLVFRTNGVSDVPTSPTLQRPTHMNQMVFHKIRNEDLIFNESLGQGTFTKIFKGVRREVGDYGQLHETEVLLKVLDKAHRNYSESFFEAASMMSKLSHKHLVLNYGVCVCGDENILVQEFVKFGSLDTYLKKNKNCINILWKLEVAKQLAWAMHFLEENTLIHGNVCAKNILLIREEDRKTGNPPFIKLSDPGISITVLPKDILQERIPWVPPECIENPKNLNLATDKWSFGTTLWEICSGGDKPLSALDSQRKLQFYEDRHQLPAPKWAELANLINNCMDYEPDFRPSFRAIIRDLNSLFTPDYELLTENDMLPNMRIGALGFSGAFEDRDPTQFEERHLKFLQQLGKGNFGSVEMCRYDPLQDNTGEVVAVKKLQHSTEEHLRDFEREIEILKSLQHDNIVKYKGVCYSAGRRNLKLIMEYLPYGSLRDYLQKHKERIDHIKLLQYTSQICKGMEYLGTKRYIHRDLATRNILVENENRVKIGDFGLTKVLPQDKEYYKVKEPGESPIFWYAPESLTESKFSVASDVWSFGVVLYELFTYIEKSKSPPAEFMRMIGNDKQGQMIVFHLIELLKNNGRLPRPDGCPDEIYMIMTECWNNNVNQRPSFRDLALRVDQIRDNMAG
T1 sequence (P12931 whole entry): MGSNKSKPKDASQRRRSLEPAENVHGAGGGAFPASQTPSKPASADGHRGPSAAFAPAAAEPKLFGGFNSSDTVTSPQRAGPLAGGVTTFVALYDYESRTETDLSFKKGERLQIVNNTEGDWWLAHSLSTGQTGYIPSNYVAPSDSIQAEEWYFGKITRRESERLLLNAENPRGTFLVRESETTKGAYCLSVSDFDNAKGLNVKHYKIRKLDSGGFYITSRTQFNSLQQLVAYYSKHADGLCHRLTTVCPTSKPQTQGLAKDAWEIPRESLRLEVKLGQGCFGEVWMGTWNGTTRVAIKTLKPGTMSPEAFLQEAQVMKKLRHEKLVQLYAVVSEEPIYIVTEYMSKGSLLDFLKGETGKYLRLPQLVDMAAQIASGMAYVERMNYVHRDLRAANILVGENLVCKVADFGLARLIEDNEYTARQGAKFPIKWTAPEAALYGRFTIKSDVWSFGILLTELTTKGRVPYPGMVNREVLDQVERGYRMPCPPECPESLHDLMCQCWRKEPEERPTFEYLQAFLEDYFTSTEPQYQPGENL
T5 sequence (Q9UM73 19-1620 F1174L): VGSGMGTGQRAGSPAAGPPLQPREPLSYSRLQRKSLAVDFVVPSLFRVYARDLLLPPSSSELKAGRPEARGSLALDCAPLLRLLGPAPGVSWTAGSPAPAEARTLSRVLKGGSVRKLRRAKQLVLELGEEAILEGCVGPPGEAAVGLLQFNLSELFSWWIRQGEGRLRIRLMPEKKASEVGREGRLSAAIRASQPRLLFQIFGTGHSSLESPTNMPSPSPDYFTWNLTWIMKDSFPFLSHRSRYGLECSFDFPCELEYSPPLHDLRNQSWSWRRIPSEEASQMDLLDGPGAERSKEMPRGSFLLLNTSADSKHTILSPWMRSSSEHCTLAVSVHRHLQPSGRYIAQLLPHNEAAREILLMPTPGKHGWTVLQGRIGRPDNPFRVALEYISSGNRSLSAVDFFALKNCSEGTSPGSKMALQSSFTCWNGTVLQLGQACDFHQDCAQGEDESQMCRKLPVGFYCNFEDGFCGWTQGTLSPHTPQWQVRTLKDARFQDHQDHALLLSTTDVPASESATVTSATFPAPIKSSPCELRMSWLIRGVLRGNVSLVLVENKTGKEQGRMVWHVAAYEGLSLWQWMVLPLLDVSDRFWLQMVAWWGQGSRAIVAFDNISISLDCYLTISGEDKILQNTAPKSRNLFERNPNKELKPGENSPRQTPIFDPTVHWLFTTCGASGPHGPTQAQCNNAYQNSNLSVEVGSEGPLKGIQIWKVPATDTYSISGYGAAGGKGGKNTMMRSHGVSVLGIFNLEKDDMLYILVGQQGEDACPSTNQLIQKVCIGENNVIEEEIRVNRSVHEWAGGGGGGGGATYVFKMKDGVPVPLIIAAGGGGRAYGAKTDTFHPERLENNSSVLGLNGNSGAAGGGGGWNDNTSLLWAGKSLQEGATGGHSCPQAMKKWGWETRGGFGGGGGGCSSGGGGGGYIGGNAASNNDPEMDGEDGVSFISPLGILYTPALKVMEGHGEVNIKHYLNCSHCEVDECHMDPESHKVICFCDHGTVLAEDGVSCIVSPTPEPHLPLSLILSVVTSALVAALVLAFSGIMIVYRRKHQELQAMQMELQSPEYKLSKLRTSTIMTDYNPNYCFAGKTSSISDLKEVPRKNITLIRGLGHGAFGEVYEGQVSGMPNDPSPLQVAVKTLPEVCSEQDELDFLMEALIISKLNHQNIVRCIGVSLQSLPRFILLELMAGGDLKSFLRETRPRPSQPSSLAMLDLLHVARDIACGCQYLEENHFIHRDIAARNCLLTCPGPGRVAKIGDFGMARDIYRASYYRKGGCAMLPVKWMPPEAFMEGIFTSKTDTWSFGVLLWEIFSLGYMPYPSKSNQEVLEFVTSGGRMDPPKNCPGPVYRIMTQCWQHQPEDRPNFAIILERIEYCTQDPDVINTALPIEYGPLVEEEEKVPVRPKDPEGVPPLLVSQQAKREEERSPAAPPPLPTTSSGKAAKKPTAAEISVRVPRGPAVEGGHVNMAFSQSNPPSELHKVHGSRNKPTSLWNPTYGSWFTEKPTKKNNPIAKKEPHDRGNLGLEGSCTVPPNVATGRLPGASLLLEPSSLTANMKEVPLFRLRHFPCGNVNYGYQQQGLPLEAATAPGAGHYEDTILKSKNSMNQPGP
T2 sequence (Q9UM73 19-1620 L1196M): as the sequence (Q9UM73 19-1620 F1174L) above, with L1156F, L1178M counted along it
T4 sequence (P11712 whole entry): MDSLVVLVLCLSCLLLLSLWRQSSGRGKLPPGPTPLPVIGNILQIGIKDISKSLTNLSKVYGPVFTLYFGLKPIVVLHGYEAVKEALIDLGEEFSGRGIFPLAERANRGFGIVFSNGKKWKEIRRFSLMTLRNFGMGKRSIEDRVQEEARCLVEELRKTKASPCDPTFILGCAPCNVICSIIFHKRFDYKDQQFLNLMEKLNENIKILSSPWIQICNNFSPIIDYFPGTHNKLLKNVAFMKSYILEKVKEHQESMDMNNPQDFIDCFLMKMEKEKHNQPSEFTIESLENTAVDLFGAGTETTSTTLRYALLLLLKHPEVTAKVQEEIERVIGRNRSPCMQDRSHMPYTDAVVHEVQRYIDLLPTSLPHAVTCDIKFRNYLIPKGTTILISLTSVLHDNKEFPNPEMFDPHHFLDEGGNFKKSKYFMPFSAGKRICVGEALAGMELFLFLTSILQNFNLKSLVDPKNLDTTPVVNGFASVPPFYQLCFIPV

CC(C)NC(=O)C1CCC(n2c(=NC(=O)c3ccccc3)[nH]c3cc(C=CC(=O)NO)ccc32)CC1 [Compound 3b, (E)-N-(5-((E)-3-(Hydroxyamino)-3-oxoprop-1-en-1-yl)-1-((1S,4S)-4-(isopropylcarbamoyl)cyclohexyl)-1H-benzo[d]imidazol-2(3H)-ylidene)benzamide]
IC50 (c-Src): 3380 nM
IC50 (ALK L1196M): 4.9 nM
IC50 (HDAC11): 16600 nM
IC50 (CYP2C9): 2650 nM
IC50 (ALK F1174L): 59 nM
protein expression level of HDAC1, HDAC6, or HDAC8 [1]: not perturbed
IC50 (HDAC8): 1690 nM
IC50 (JAK2): > 10000 nM
acetylated histone H3 level [2]: slightly increased
IC50 (c-Met): > 10000 nM
effect on tumour volume ([3]; 5 mg/kg i.p. once daily for 21 days): no significant effect
decrease in mean tumour volume ([3]; 10 mg/kg i.p. once daily for 21 days, day 21 of treatment): 68%
decrease in mean tumour volume ([3]; 10 mg/kg i.p. once daily for 21 days, day 31 (10 days after treatment suspended)): 80%
decrease in mean tumour volume ([3]; 20 mg/kg i.p. once daily for 21 days, day 21 of treatment): 85%
decrease in mean tumour volume ([3]; 20 mg/kg i.p. once daily for 21 days, day 31 (10 days after treatment suspended)): 86%
mean body weight ([3]; 5, 10, 20 mg/kg i.p. once daily for 21 days, any treatment group): negligible effect; also recorded: not significantly affected
